Measured values from ChEMBL document CHEMBL1131403, “Selective inhibition of the chymotrypsin-like activity of the 20S proteasome by 5-methoxy-1-indanone dipeptide benzamides” (Bioorg Med Chem Lett, 1998).
Where a SMILES comes first, the peptide text is derived from it. [ ]: non-standard residue; d: D form. Nle = CCCC[C@H](N)C(=O)O

What was measured:
Proteasome [1] = assay: Inhibition of chymotrypsin-like activity of 20S proteasome; type: subcellular
Calpain 1 [2] = target: T1, Calpain 1 (Homo sapiens, UniProt P04632+P07384); assay: Inhibitory activity against calpain I; no inhibition was observed; type: protein-complex assay
T1 sequence (P04632 whole entry): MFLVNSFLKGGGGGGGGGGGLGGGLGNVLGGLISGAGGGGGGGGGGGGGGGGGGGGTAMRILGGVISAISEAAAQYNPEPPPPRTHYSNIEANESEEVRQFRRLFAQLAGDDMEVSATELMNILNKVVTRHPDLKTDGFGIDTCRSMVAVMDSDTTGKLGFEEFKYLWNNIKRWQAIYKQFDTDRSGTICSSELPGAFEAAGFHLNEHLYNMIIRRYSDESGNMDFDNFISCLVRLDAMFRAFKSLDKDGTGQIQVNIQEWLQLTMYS
T1 sequence (P07384 whole entry): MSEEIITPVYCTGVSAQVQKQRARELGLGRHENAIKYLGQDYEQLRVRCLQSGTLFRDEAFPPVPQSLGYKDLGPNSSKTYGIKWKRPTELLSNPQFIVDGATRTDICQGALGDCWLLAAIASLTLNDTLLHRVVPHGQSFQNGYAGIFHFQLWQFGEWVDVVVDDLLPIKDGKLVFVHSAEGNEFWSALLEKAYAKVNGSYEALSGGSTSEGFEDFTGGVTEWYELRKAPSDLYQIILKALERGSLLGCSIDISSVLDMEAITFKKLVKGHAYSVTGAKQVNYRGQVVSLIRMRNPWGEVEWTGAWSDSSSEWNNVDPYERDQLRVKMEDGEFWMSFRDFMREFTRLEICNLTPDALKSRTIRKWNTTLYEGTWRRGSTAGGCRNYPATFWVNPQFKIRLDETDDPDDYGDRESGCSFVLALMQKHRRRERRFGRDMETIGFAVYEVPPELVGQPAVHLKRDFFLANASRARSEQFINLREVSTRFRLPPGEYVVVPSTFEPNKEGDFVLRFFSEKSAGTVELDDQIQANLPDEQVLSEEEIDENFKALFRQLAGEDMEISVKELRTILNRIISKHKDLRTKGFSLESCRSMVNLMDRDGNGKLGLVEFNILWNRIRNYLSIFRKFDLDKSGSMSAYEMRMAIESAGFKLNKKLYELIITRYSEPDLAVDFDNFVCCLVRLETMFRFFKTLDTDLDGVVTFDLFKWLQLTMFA

Proteasome [3] = assay: Inhibition of chymotrypsin-like activity of 20S proteasome; value ranges from 10-20 uM; type: subcellular
Calpain 1 [4] = target: Calpain 1 (Homo sapiens, UniProt P07384); assay: Inhibitory activity against Calpain I; type: protein-complex assay
RAW = assay: Antiproliferative activity against murine macrophage (RAW) cell line; type: functional, cell-based; conditions: Mus musculus

| Compound | IC50 (Proteasome [1]) [µM] | IC50 (Calpain 1 [2]) | IC50 (Proteasome [3]) [µM] | IC50 (Calpain 1 [4]) [µM] | IC50 (RAW) [µM] |
| --- | --- | --- | --- | --- | --- |
| COc1ccc2c(c1)C(CC(=O)N[C@@H](C(=O)N[C@H](CC(C)C)C(N)=O)C(C)C)CC2=O (some centres undefined) | > 20 | No inhibition |  |  |  |
| COc1ccc2c(c1)C(CC(=O)N[C@@H](CC(C)C)C(=O)N[C@H](CC(C)C)C(=O)NCc1ccco1)CC2=O (some centres undefined) | 1.9 | No inhibition |  |  |  |
| COc1ccc2c(c1)C(CC(=O)N[C@H](Cc1ccccc1)C(=O)N[C@H](CC(C)C)C(N)=O)CC2=O (some centres undefined) | > 20 | No inhibition |  |  |  |
| COc1ccc2c(c1)C(CC(=O)N[C@@H](CC(C)C)C(=O)N[C@@H](CC(C)C)C(N)=O)CC2=O (some centres undefined) | > 20 | No inhibition |  |  |  |
| COc1ccc2c(c1)C(CC(=O)N[C@@H](CC(C)C)C(=O)N[C@H](CC(C)C)C(=O)NCc1ccc3c(c1)OCO3)CC2=O (some centres undefined) | 0.34 | No inhibition |  |  |  |
| COc1ccc2c(c1)C(CC(=O)N[C@H](CC(C)C)C(=O)N[C@@H](CC(C)C)C(N)=O)CC2=O (some centres undefined) | > 20 | No inhibition |  |  |  |
| COc1ccc2c(c1)C(CC(=O)N[C@@H](CC(C)C)C(=O)N[C@H](CC(C)C)C(=O)NC(C)C)CC2=O (some centres undefined) | > 20 | No inhibition |  |  |  |
| COc1ccc2c(c1)C(CC(=O)N[C@@H](CC(C)C)C(=O)N[C@H](CC(C)C)C(=O)NCc1ccc([N+](=O)[O-])cc1)CC2=O (some centres undefined) | > 17 | No inhibition |  |  |  |
| COc1ccc2c(c1)C(CC(=O)N[C@@H](CC(C)C)C(=O)N[C@H](CC(C)C)C(=O)N1CCOCC1)CC2=O (some centres undefined) | > 20 | No inhibition |  |  |  |
| COc1ccc2c(c1)C(CC(=O)N[C@H](CC(C)C)C(=O)N[C@H](CC(C)C)C(=O)NCC(N)=O)CC2=O (some centres undefined) | > 20 | No inhibition |  |  |  |
| COc1ccc2c(c1)C(CC(=O)N[C@@H](CC(C)C)C(=O)N[C@H](CC(C)C)C(=O)Nc1ccccc1)CC2=O (some centres undefined) | > 19 | No inhibition |  |  |  |
| COc1ccc2c(c1)C(CC(=O)N[C@H](CC(C)C)C(=O)N[C@@H](CC(C)C)C(=O)NCC(N)=O)CC2=O (some centres undefined) |  | No inhibition | 10 |  |  |
| COc1ccc2c(c1)C(CC(=O)N[C@@H](CC(C)C)C(=O)N[C@H](CC(C)C)C(=O)N(C)Cc1ccccc1)CC2=O (some centres undefined) | > 18 | No inhibition |  |  |  |
| COc1ccc2c(c1)C(CC(=O)N[C@@H](CC(C)C)C(=O)N[C@H](CC(C)C)C(=O)NCc1ccccc1-c1ccccc1)CC2=O (some centres undefined) | > 16 | No inhibition |  |  |  |
| COc1ccc2c(c1)C(CC(=O)N[C@@H](CC(C)C)C(=O)N[C@H](CC(C)C)C(=O)NCc1ccc(-c3ccccc3)cc1)CC2=O (some centres undefined) | 0.49 | No inhibition |  |  |  |
| COc1ccc2c(c1)C(CC(=O)N[C@@H](CC(C)C)C(=O)N[C@H](CC(C)C)C(=O)NCC1CCCCC1)CC2=O (some centres undefined) | > 18 | No inhibition |  |  |  |
| COc1ccc2c(c1)C(CC(=O)N[C@@H](CC(C)C)C(=O)N[C@H](CC(C)C)C(=O)NCc1ccc(OCc3ccccc3)cc1)CC2=O (some centres undefined) | 16 | No inhibition |  |  |  |
| COc1ccc2c(c1)C(CC(=O)N[C@@H](CC(C)C)C(=O)N[C@H](CC(C)C)C(=O)NCc1occ3ccccc13)CC2=O (some centres undefined) | 8.7 | No inhibition |  |  |  |

| Compound | IC50 (Proteasome [1]) [µM] | IC50 (Calpain 1 [2]) | IC50 (Proteasome [3]) [µM] | IC50 (Calpain 1 [4]) [µM] | IC50 (RAW) [µM] |
| --- | --- | --- | --- | --- | --- |
| CCCC[C@@H](C=O)NC(=O)[C@H](CC(C)C)NC(=O)[C@H](CC(C)C)NC(C)=O (Ac-Leu-Leu-[Nle]-aldehyde) | 0.15 |  |  | 7 |  |
| COc1ccc2c(c1)C(CC(=O)N[C@@H](CC(C)C)C(=O)N[C@H](CC(C)C)C(=O)NC(c1ccccc1)c1ccccc1)CC2=O (some centres undefined) | > 16 | No inhibition |  |  |  |
| COc1ccc2c(c1)C(CC(=O)N[C@@H](CC(C)C)C(=O)N[C@H](CC(C)C)C(=O)NC1C3CC4CC(C3)CC1C4)CC2=O (some centres undefined) | > 18 | No inhibition |  |  |  |
| COc1ccc2c(c1)C(CC(=O)N[C@@H](CC(C)C)C(=O)N[C@H](CC(C)C)C(=O)NC1CCc3ccccc31)CC2=O (some centres undefined) | 0.89 | No inhibition |  |  |  |
| COc1ccc2c(c1)C(CC(=O)N[C@@H](CC(C)C)C(=O)N[C@H](CC(C)C)C(=O)N1CCCCC1)CC2=O (some centres undefined) | > 20 | No inhibition |  |  |  |
| CCC[C@H](NC(=O)CC1CC(=O)c2ccc(OC)cc21)C(=O)N[C@H](CC(C)C)C(=O)NCC(N)=O (some centres undefined) | > 20 | No inhibition |  |  |  |
| COc1ccc2c(c1)C(CC(=O)N[C@H](CC(C)C)C(=O)N[C@@H](C(N)=O)C(C)C)CC2=O (some centres undefined) | > 20 | No inhibition |  |  |  |
| COc1ccc2c(c1)C(CC(=O)N[C@@H](CC(C)C)C(=O)N[C@@H](CC(C)C)C(=O)NCC(N)=O)CC2=O (some centres undefined) | > 20 | No inhibition |  |  |  |
| COc1ccc2c(c1)C(CC(=O)N[C@@H](CC(C)C)C(=O)N[C@H](CC(C)C)C(=O)N1CCCC1)CC2=O (some centres undefined) | > 20 | No inhibition |  |  |  |
| COc1ccc2c(c1)C(CC(=O)N[C@@H](CC(C)C)C(=O)N[C@H](CC(C)C)C(=O)NCC(N)=O)CC2=O (some centres undefined) | 0.2 | No inhibition |  |  |  |
| COc1ccc2c(c1)C(CC(=O)N[C@H](CC(C)C)C(=O)N[C@H](CC(C)C)C(N)=O)CC2=O (some centres undefined) | 2.2 | No inhibition |  |  |  |
| COc1ccc2c(c1)C(CC(=O)N[C@@H](CC(C)C)C(=O)N[C@H](CC(C)C)C(N)=O)CC2=O (some centres undefined) | > 20 | No inhibition |  |  |  |
| COc1ccc(CNC(=O)[C@@H](CC(C)C)NC(=O)[C@H](CC(C)C)NC(=O)CC2CC(=O)c3ccc(OC)cc32)cc1 (some centres undefined) | 0.71 | No inhibition |  |  |  |
| COc1ccc2c(c1)C(CC(=O)N[C@@H](CC(C)C)C(=O)N[C@H](CC(C)C)C(=O)NCCO)CC2=O (some centres undefined) | > 20 | No inhibition |  |  |  |
| COc1ccc2c(c1)C(CC(=O)N[C@@H](CC(C)C)C(=O)N[C@H](CC(C)C)C(=O)NCCc1ccccc1)CC2=O (some centres undefined) | > 18 | No inhibition |  |  |  |
| COc1ccc2c(c1)C(CC(=O)N[C@@H](CC(C)C)C(=O)N[C@H](CC(C)C)C(=O)NCc1c(F)c(F)c(F)c(F)c1F)CC2=O (some centres undefined) | > 16 | No inhibition |  |  |  |
| COc1ccc2c(c1)C(CC(=O)N[C@@H](CC(C)C)C(=O)N[C@H](CC(C)C)C(=O)NCc1c(F)cccc1F)CC2=O (some centres undefined) | 0.14 | No inhibition |  |  | 8 |
| COc1ccc2c(c1)C(CC(=O)N[C@@H](CC(C)C)C(=O)N[C@H](CC(C)C)C(=O)NCc1ccccc1)CC2=O (some centres undefined) | 0.93 | No inhibition |  |  | 7 |
